Measured values from patent US20120272343A1, “STROMAL INTERACTING MOLECULE KNOCKOUT MOUSE AND USES THEREOF” (IMMUNE DISEASE INSTITUTE, INC., priority 2007, published 2012).

Test system: CRAC current (ICRAC)
Assay: Whole cell patch-clamp recordings of CRAC current in differentiated CD4+ T cells
Format: cell-based, mouse
Conditions: for increase in current amplitude following 2-APB application: thapsigargin-pretreated, 2-APB 40 μM, step to −100 mV
Experimental: CD4^+ T cells were cultured in non-polarizing conditions and harvested at day 5. Patch-clamp recordings were performed using an Axopatch 200 amplifier (Axon Instruments) interfaced to an ITC-18 input/output board (Instrutech) and an iMac G5 computer. Currents were filtered at 1 kHz with a 4-pole Bessel filter and sampled at 5 kHz. Recording electrodes were pulled from 100-μl pipettes, coated with Sylgard, and fire-polished to a final resistance of 2-5 MΩ. Stimulation and data acquisition and analysis were performed using in-house routines developed on the Igor Pro platform (Wavemetrics). All data were corrected for the liquid junction potential of the pipette solution relative to Ringer's in the bath (10 mV) and for leak currents collected in 20 mM [Ca^2+]o+25 μM La^3+. The standard extracellular Ringer solution contained (in mM): 130 NaCl, 4.5 KCl, 20 CaCl2, 1 MgCl2, 10 D-glucose, and 5 Na-Hepes (pH 7.4). In some experiments, 2 mM CaCl2 was used in the standard extracellular solution and the NaCl concentration was raised to 150 mM. The standard divalent-free (DVF) Ringer solutions contained (in mM) 150 NaCl, 10 mM tetraacetic acid, 1 mM EDTA and 10 mM Hepes (pH 7.4). 25 nM charybdotoxin (Sigma) was added to all extracellular solutions to eliminate contamination from Kv1.3 channels. […] Averaged results are presented as the mean value±s.e.m. Curve fitting was done by least-squares methods using built-in functions in Igor Pro 5.0. The permeability of Cs^+ relative to that of Na^+ was calculated from the bionic reversal potential using the relation:

| Structure (SMILES) | increase in current amplitude following 2-APB application (STIM2-deficient T cells, n=5) [%] | increase in current amplitude following 2-APB application (control T cells, n=4) [%] | block of Na+ CRAC currents (wild-type mouse T cells, 20 μM Ca2+) [%] |
| --- | --- | --- | --- |
| NCCOB(c1ccccc1)c1ccccc1 [2-APB, 2-Aminoethoxydiphenyl borate] | 30±7 | 26±6 | – |
| [Ca+2] [Ca^2+] | – | – | ~50 |
